Common to all, as to type: cell-based
Assay [1] relates to Candida albicans NCYC 597. Description: Antifungal activity, agar plate disc zone of inhibition, approximate MIC, Candida albicans. Particulars: NCYC597, C. albicans, compound in dimethyl sulphoxide, 13 mm discs on nutrient agar, 24h and 48h incubation, read-out: MICs, C. albicans. The procedure:
(§1) Candida albicans NCYC 597; Trichophyton mentagrophytes NCPF 224 and Microsporum audounii NCPF 638 were used throughout as test organisms. These are open deposits at the National Collection of Yeast Cultures, Norwich UK and the National Collection of Pathogenic Fungi of the Commonwealth Mycological Institute, Kew UK.
(§2) All organisms were maintained in a nutrient broth containing (gl^-1): Lab Lemco (Oxoid), 5; Peptone (Oxoid), 5; NaCl, 10. Cultures for testing antimicrobial activity were grown in this medium for 18h prior to use. Solidified media were prepared by the addition of Agar (Oxoid No. 3) 1.5% w/v.
(§3) Antifungal activity was estimated using solutions of the compound (as the free acid) in dimethyl sulphoxide. A range of concentrations was used for each compound to permit calculation of an approximate MIC. 13 mm discs (Whatman) were soaked in a solution of the appropriate dilution, either allowed to dry, or placed directly onto the surface of nutrient agar plates seeded with the required test organism.
(§4) After 24h incubation the diameters of zones of inhibition were measured. After a further 24h incubation, the plates were re-examined and zones re-measured.

Assay [2] concerns Microsporum audounii NCPF 638. Kind of assay: Antifungal activity, agar plate disc zone of inhibition, approximate MIC, Microsporum audounii. To be noted: for MIC: Microsporum, NCPF638, M. audounii, approximate MIC, compound in dimethyl sulphoxide, 13 mm discs on nutrient agar, 24h and 48h incubation; for activity against the ringworm organism (in words): athlete's foot and ringworm organisms. The procedure:
as §1, §2, §3, §4

Assay [3] concerns Trichophyton mentagrophytes NCPF 224. Kind of assay: Antifungal activity, agar plate disc zone of inhibition, approximate MIC, Trichophyton mentagrophytes. Particulars: for MIC: Trichophyton mentagrophytes, NCPF224, approximate MIC, compound in dimethyl sulphoxide, 13 mm discs on nutrient agar, 24h and 48h incubation, read-out: MICs, T. ment.; for activity against the athlete's foot organism (in words): athlete's foot and ringworm organisms. On the procedure:
as §1, §2, §3, §4

Converted amounts (≈) assume the structure as drawn.

Take `C[C@H](CCCCO)[C@H]1CC[C@H]2[C@@H]3[C@H](O)C[C@@H]4C[C@H](O)CC[C@]4(C)[C@H]3CC[C@]12C` [chenodeoxycholic, Z = CH2 OH, 3α,7α,25-trihydroxy-25-homo-5β-cholane]: the MIC in assay [1] worked out at 110 µg/mL (≈ 280 µM); in assay [2], 270 µg/mL (≈ 688 µM). In addition, the “MICs, T. ment. (result in words)” value in assay [3] (T. mentagrophytes, no MIC / no activity) is listed as “NONE”.
On to `C[C@H](CCCO)[C@H]1CC[C@H]2[C@@H]3[C@H](O)C[C@@H]4C[C@H](O)CC[C@]4(C)[C@H]3CC[C@]12C` [chenodeoxycholic, Z = OH, 3α,7α,24-trihydroxy-5β-cholane], for which the MIC worked out at 7000 µg/mL (≈ 18500 µM) in assay [1], 50 µg/mL (≈ 132 µM) in assay [2] and 30 µg/mL (≈ 79.2 µM) in assay [3] (T. mentagrophytes).
The like results for `C[C@H](CCCCO)[C@H]1CC[C@H]2[C@@H]3[C@H](O)C[C@@H]4C[C@H](O)CC[C@]4(C)[C@H]3C[C@H](O)[C@]12C` [cholic, Z = CH2 OH, 3α,7α,12α,25-tetrahydroxy-25-homo-5β-cholane] were, in that order, 450 µg/mL (≈ 1100 µM), 20 to 50 µg/mL (≈ 48.9 to 122 µM) and 100 µg/mL (≈ 245 µM).
On to `C[C@H](CCCO)[C@H]1CC[C@H]2[C@@H]3[C@H](O)C[C@@H]4C[C@H](O)CC[C@]4(C)[C@H]3C[C@H](O)[C@]12C` [cholic, Z = OH, 3α,7α,12α,24-tetrahydroxy-5β-cholane], for which the MIC was determined as 900 µg/mL (≈ 2280 µM) in assay [1], 3800 µg/mL (≈ 9630 µM) in assay [2] and 1650 µg/mL (≈ 4180 µM) in assay [3] (T. mentagrophytes).
As for `C[C@H](CCCCO)[C@H]1CC[C@H]2[C@@H]3CC[C@@H]4C[C@H](O)CC[C@]4(C)[C@H]3C[C@H](O)[C@]12C` [deoxycholic, Z = CH2 OH, 3α,12α,25-trihydroxy-25-homo-5β-cholane], the figures for the MIC in assay [1], in assay [2] and in assay [3] (T. mentagrophytes) were 150 µg/mL (≈ 382 µM), 5 µg/mL (≈ 12.7 µM) and 30 µg/mL (≈ 76.4 µM), respectively. For the same compound, the “activity against the ringworm organism (in words)” value in assay [2] is reported as “outstanding”. Further, the “activity against the athlete's foot organism (in words)” value in assay [3] is recorded as “outstanding”.
Take `C[C@H](CCCO)[C@H]1CC[C@H]2[C@@H]3CC[C@@H]4C[C@H](O)CC[C@]4(C)[C@H]3C[C@H](O)[C@]12C` [deoxycholic, Z = OH, 3α,12α,24-trihydroxy-5β-cholane]: the results for the MIC in assay [1], in assay [2] and in assay [3] (T. mentagrophytes) were 730 µg/mL (≈ 1930 µM), 10 µg/mL (≈ 26.4 µM) and 10 µg/mL (≈ 26.4 µM), respectively. Further, the “activity against the ringworm organism (in words)” value in assay [2] was “outstanding”. Further, the “activity against the athlete's foot organism (in words)” value in assay [3] was “outstanding”.

Values taken from patent US5304551A, “Anti-fungal compounds” (British Technology Group Limited, priority 1990, dated 1994).
